Experimental data: ChEMBL document CHEMBL1914349, “Porpoisamides A and B, two novel epimeric cyclic depsipeptides from a Florida Keys collection of Lyngbya sp” (Bioorg Med Chem, 2011)

Tests used:
HCT-116 = assay: Antiproliferative activity against human HCT116 cells after 48 hrs by MTT assay; type: functional, cell-based; conditions: HCT-116, 48 h
U2OS = assay: Antiproliferative activity against human U2OS cells after 48 hrs by MTT assay; type: functional, cell-based

| SMILES | IC50 (HCT-116) [µM] | IC50 (U2OS) [µM] |
| --- | --- | --- |
| CCCCC[C@H]1NC(=O)[C@H](C)NC(=O)[C@@H](Cc2ccccc2)N(C)C(=O)[C@@H]2CCCN2C(=O)[C@H]([C@@H](C)CC)OC(=O)[C@H]1C [PORPOISAMIDE A] | 25 | 28 |
| CCCCC[C@H]1NC(=O)[C@H](C)NC(=O)[C@@H](Cc2ccccc2)N(C)C(=O)[C@@H]2CCCN2C(=O)[C@H]([C@@H](C)CC)OC(=O)[C@@H]1C [PORPOISAMIDE B] | 21 | 22 |
